The text below walks through data of ChEMBL document CHEMBL1201862, “PubChem BioAssay data set” (2004).

Among the test systems are TK-10; SK-MEL-5; CAKI-1; COLO 205; ACHN; SF-295; HL-60; SK-OV-3; SNB-75; HCT-116; NCI-H522; MOLT-4; Malme-3M; DU-145; EKVX; SW-620; SNB-19; IGROV-1; CCRF-CEM; A498.
What all share (test): NCI-60 cell line screen, 48 h

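Each compound was tested at five concentrations against cells in 96-well plates for 48 hours. GI50: concentration for 50% inhibition of growth.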 Calls of active or inactive are those of the source. Rule as the data show it: active = GI50 up to about 1.1 µM and inactive = higher. Some results are limits rather than exact numbers.

On to `CC(=O)NC1C(OCc2ccccc2)OC(CO)C(O)C1OCC(=O)NC(C)C(=O)NC(CCC(=O)OCCNC(=O)c1cccc2cc3ccccc3nc12)C(N)=O` (stereo not drawn), for which the GI50 in the assay with TK-10 is 16.1 µM (inactive); in the assay with SK-MEL-5 it was 17 µM (inactive); with CAKI-1, 14.8 µM (inactive); in the assay with COLO 205, 21.3 µM (inactive); in the assay on ACHN, 12.3 µM (inactive); in the assay with SF-295, 21.4 µM (inactive). In addition, the GI50 in the assay on HL-60 was 22.2 µM (inactive); in the assay on SK-OV-3, 21.6 µM (inactive); in the assay with SNB-75 it was 20.5 µM (inactive); with HCT-116, 10.4 µM (inactive); in the assay with NCI-H522, 16.8 µM (inactive); with MOLT-4 it was 6.82 µM (inactive). Moreover, the GI50 in the assay with Malme-3M is 15.6 µM (inactive); in the assay with DU-145 it was 11.3 µM (inactive); in the assay on EKVX, 24.9 µM (inactive); with SW-620, 25.2 µM (inactive); in the assay on SNB-19 it was 31.4 µM (inactive); in the assay on IGROV-1 it was 17.8 µM (inactive).

As to `CC(=O)OCC12CN(C#N)C3C4COC(CC41)C1(C(=O)N(C)c4ccccc41)C32` (stereo not drawn), the GI50 in the assay on TK-10 was 20.4 µM (inactive); in the assay on SK-MEL-5, 26.7 µM (inactive); in the assay on CAKI-1, 17.3 µM (inactive); with COLO 205 it was 16.7 µM (inactive); with ACHN it was 14.3 µM (inactive); in the assay on SF-295, 49.1 µM (inactive). The GI50 was 11.2 µM (inactive) in the assay with HL-60; 34.4 µM (inactive) in the assay with SK-OV-3; 26.5 µM (inactive) in the assay on SNB-75; 11.8 µM (inactive) in the assay with CCRF-CEM; 19.3 µM (inactive) with HCT-116; 12.1 µM (inactive) with NCI-H522. Also, the GI50 is 7.48 µM (inactive) in the assay on MOLT-4; 21 µM (inactive) in the assay with Malme-3M; 15.4 µM (inactive) in the assay on DU-145; 20.7 µM (inactive) with EKVX; 22 µM (inactive) in the assay on SW-620; 24 µM (inactive) in the assay on IGROV-1.

For the compound `CN(C)CCCNc1ccc2nnn3c4ccc(OC(=O)c5ccccc5)cc4c(=O)c1c23`, the GI50 is 7.8 µM (inactive) in the assay on TK-10; 0.579 µM (active) in the assay on CAKI-1; 14 µM (inactive) with COLO 205; 8.41 µM (inactive) in the assay with A498; 3.05 µM (inactive) with ACHN; 10.9 µM (inactive) in the assay with SF-295. The GI50 in the assay with SK-OV-3 was 9.51 µM (inactive); in the assay with CCRF-CEM, 1.08 µM (active); with HCT-116 it was 3.15 µM (inactive); in the assay on NCI-H522 it was 2.84 µM (inactive); in the assay on MOLT-4 it was 0.192 µM (active); with Malme-3M it was 11.5 µM (inactive). In addition, the GI50 in the assay on DU-145 was 8.26 µM (inactive); in the assay with EKVX, 4.24 µM (inactive); in the assay on SW-620, 4.53 µM (inactive); with SNB-19 it was 10.9 µM (inactive); with IGROV-1 it was 2.11 µM (inactive).

Turning to `C#CC(O)/C=C/C(O)CCCC(O)CC#CC(O)C#CC(O)CCCC(O)/C=C/CCCC(=O)CCCCCCCCCCCCCCCC(O)C(O)C#CC(=O)O` (stereo not drawn), the GI50 with TK-10, in the assay with SK-MEL-5, in the assay with CAKI-1, with COLO 205, with ACHN and in the assay on SF-295 was > 50 µM (inactive) each time. Besides, the GI50 in the assay on HL-60 is 13.2 µM (inactive); in the assay with SK-OV-3, > 50 µM (inactive); with SNB-75 it was 20.1 µM (inactive); in the assay on CCRF-CEM, 14.1 µM (inactive); with HCT-116, > 50 µM (inactive); with NCI-H522 it was 8.41 µM (inactive). Also, the GI50 in the assay with MOLT-4 is 43.6 µM (inactive); with Malme-3M it was > 50 µM (inactive); with DU-145, > 50 µM (inactive); in the assay on EKVX, > 50 µM (inactive); with SNB-19 it was > 50 µM (inactive); with IGROV-1, 9.79 µM (inactive).

As for `Cc1ccc(/C=C2\CN(C)CC3C(c4ccc(C)cc4)=C(C#N)C(=O)NC23)cc1` (stereo not drawn), the GI50 in the assay with TK-10, with SK-MEL-5, with CAKI-1, in the assay with COLO 205, in the assay on A498 and in the assay on ACHN was > 50 µM (inactive) each time. Further, the GI50 in the assay on SF-295, in the assay with SK-OV-3, in the assay on CCRF-CEM, in the assay with HCT-116, in the assay on NCI-H522 and in the assay with MOLT-4 was > 50 µM (inactive) each time. Further, the GI50 with Malme-3M, in the assay on DU-145, in the assay on EKVX, in the assay on SW-620, in the assay with SNB-19 and in the assay with IGROV-1 was > 50 µM (inactive) each time.

As to `COc1ccc(C(=O)CC(c2ccc(OC)c(OC)c2)c2c(O)oc3ccccc3c2=O)cc1OC` (stereo not drawn), the GI50 in the assay with TK-10, in the assay with SK-MEL-5, in the assay on CAKI-1, in the assay with COLO 205, in the assay with ACHN and in the assay with SF-295 was > 100 µM (inactive) in each case. Besides, the GI50 with HL-60, with SK-OV-3, with SNB-75, with CCRF-CEM, in the assay on HCT-116 and in the assay on NCI-H522 was > 100 µM (inactive) in each case. Also, the GI50 with MOLT-4, with Malme-3M, with DU-145, in the assay on EKVX, in the assay on SW-620 and with SNB-19 was > 100 µM (inactive) each time. Further, the GI50 with IGROV-1 was > 100 µM (inactive).

In the case of `O=C(/C=C/c1ccc2c(c1)OCO2)NCc1ccco1`, the GI50 in the assay on TK-10 is > 100 µM (inactive); in the assay with SK-MEL-5, > 100 µM (inactive); in the assay on CAKI-1, > 100 µM (inactive); with COLO 205, > 100 µM (inactive); in the assay with A498 it was 84.3 µM (inactive); with ACHN, > 100 µM (inactive). Moreover, the GI50 was > 100 µM (inactive) in the assay with SF-295; > 100 µM (inactive) with SK-OV-3; 22.3 µM (inactive) in the assay on SNB-75; > 100 µM (inactive) in the assay with CCRF-CEM; > 100 µM (inactive) in the assay with HCT-116; > 100 µM (inactive) with MOLT-4. The GI50 with Malme-3M is > 100 µM (inactive); with DU-145 it was > 100 µM (inactive); with EKVX, 71.6 µM (inactive); in the assay on SW-620, > 100 µM (inactive); with SNB-19, 50.9 µM (inactive); with IGROV-1 it was 56 µM (inactive).

`O=C(O)c1nc2ccc(C(F)(F)F)cc2nc1NCc1ccc(F)cc1`: the GI50 in the assay with SK-MEL-5 is 16.9 µM (inactive); in the assay with CAKI-1 it was 37.8 µM (inactive); with COLO 205, 21.5 µM (inactive); in the assay on A498, 23.7 µM (inactive); in the assay with ACHN, 27.2 µM (inactive); with SF-295 it was 23.5 µM (inactive). Besides, the GI50 was 31.7 µM (inactive) in the assay on SK-OV-3; 35.2 µM (inactive) with SNB-75; 37.3 µM (inactive) in the assay with CCRF-CEM; 15.9 µM (inactive) in the assay with HCT-116; 9.23 µM (inactive) in the assay on MOLT-4; > 100 µM (inactive) in the assay with DU-145. Moreover, the GI50 in the assay on EKVX was 25.6 µM (inactive); in the assay on SW-620, 33 µM (inactive); in the assay on SNB-19, 24.5 µM (inactive); with IGROV-1 it was 25.4 µM (inactive).

As for `CCN(CC)CCn1c(=O)c2ccccc2n2c3c(=O)n(C)c(=O)n(C)c3nc12`, the GI50 in the assay with TK-10 is 19.6 µM (inactive); with SK-MEL-5 it was 1.17 µM (inactive); in the assay on CAKI-1 it was 0.252 µM (active); with COLO 205 it was 1.55 µM (inactive); with ACHN, 0.25 µM (active); with SF-295, 1.24 µM (inactive). Also, the GI50 in the assay with HL-60 was 0.255 µM (active); in the assay on SK-OV-3 it was 1.37 µM (inactive); with SNB-75, 1.64 µM (inactive); in the assay with CCRF-CEM, 0.547 µM (active); in the assay on HCT-116 it was 1.55 µM (inactive); in the assay with NCI-H522 it was 2.43 µM (inactive). Also, the GI50 in the assay with MOLT-4 is 0.239 µM (active); in the assay on Malme-3M, 2.07 µM (inactive); in the assay on DU-145, 0.771 µM (active); in the assay with EKVX it was 3.59 µM (inactive); with SW-620, 1.22 µM (inactive); in the assay on SNB-19, 2.38 µM (inactive). Moreover, in the assay on IGROV-1, the GI50 is 2.11 µM (inactive).

On to `O=S1(=O)CCN(Cc2ccccn2)CC1`, for which the GI50 in the assay on TK-10, in the assay on SK-MEL-5, with CAKI-1, with COLO 205, in the assay with A498 and with ACHN was > 100 µM (inactive) throughout. The GI50 in the assay on SF-295, in the assay on SK-OV-3, with SNB-75, with HCT-116, with NCI-H522 and with Malme-3M was > 100 µM (inactive) in each case. The GI50 with DU-145, in the assay on EKVX, in the assay with SW-620, in the assay on SNB-19 and in the assay with IGROV-1 was > 100 µM (inactive) throughout.

With `Cc1n[nH]c(=O)n1/N=C/c1ccco1`, the GI50 in the assay on CAKI-1, in the assay with COLO 205, in the assay on A498, in the assay on ACHN, in the assay with SF-295 and with SK-OV-3 was > 100 µM (inactive) each time. Also, the GI50 in the assay on SNB-75, in the assay with CCRF-CEM, in the assay on HCT-116, in the assay on MOLT-4, in the assay on Malme-3M and with DU-145 was > 100 µM (inactive) throughout. Further, the GI50 in the assay with EKVX, in the assay on SW-620 and in the assay on SNB-19 was > 100 µM (inactive) each time.
